Experiments:
Type in all cases: in vivo, mouse
[1] = tested on: C57BL/6 mice with MI induced by permanent coronary artery ligation; assay: Flow cytometry of myeloid cells and BrdU incorporation on day 2 post-MI
Method: Immune cells from blood, spleen, heart and bone-marrow were collected at 2 or 7 days post-MI, and analysed by flow-cytometry. Mice were anesthetized by intraperitoneal injection of a mixture of xylazine (10 mg/kg) and ketamine (100 mg/kg). After 10 minutes, blood was collected by cardiac punction. Thereafter, the spleen was removed and the heart was perfused with 5 ml ice-cold PBS. Perfused hearts were excised and collected into tubes with PBS and kept on ice. Femurs and tibias from each mouse were used to obtain whole bone marrow for analysis. Blood was stained with fluorochrome-labelled antibodies against mouse monocyte and neutrophil markers diluted in MACS buffer (PBS, 10% FCS and 0.5% BSA), followed by treatment with erythrocyte lysis buffer, washing and analysis. Spleens were mashed trough a cell strainer in ice-cold PBS. Hearts were cut into small pieces and placed into tubes containing 2.5 ml digestion cocktail (Collagenase I, 450 U/ml; Collagenase XI, 125 U/ml; DNAase I, 60 U/ml; Hyaluronidase type 1-5, 60 U/ml diluted in PBS containing Ca and Mg) incubated for 1 h at 37° C. with shaking at 220 rpm. Bone marrow was flushed from femur and tibia using ice-cold PBS. Cell suspensions from spleen, heart and bone marrow were filtered through a 40 um cell strainer (BD), treated with erythrocyte lysis buffer, washed and stained. For intracellular staining, cells were fixed, permeabilized and stained. Cell populations were analyzed by flow cytometry in a Gallios Flow Cytometer (Backman Coulter), and the results were analyzed using FlowJo (FlowJo®, LLC; Tree Star). The following anti-mouse antibodies were used for the flow cytometric analysis: anti-CD45 (30-F11), anti-CD11b (M1/70), anti-Ly6C (HK1.4), anti-CD115 (AFS98), anti-Ly6G (1A8), anti-F4/80 (BM8), anti-CCR2 (475301), anti-Ter119 (TER119), anti-Gr1 (RB6-8C5), anti-CD45R/B220 (RA3-6B2), anti-CD3ξ (145-2C11), anti-NK1.1 (PK136), anti-Ly6A/E (Sca-1) (E13-1617), anti-CD117 (c-kit) (2B8), anti-CD48 (HM48.1), anti-CD150/SLAM (TC15-12F12.2), anti-CD16/32 (93), anti-CD34 (MEC14.7) (all from BioLegend, San Diego, Calif., USA); anti-MerTK (DSSMMER) and anti-Nur77 (12.14) (eBioscience).
Mice were injected intraperitoneally with 1 mg BrdU 24 hours prior to organ harvest. Intracellular BrdU staining was performed in hematopoietic stem cells collected from the bone marrow using BrdU flow kits (BD Pharmigen™), according to the manufacturer instructions. BrdU expression was analysed by flow cytometry.
Neutrophilia and monocytosis, elevated circulating numbers of neutrophils and monocytes, have been associated with an adverse prognosis in MI patients. We studied the effects of S100A9 blockade on myeloid cell populations in blood, heart, and myeloid organs on day 2 post-MI, at the peak of the acute inflammatory period. The gating strategy is described in FIG. 8.

[2] = tested on: C57BL/6 mice with MI induced by permanent coronary artery ligation; assay: Quantitative PCR of whole heart tissue 3 days post-MI
Method: Total RNA was isolated from whole heart tissue using the TRI Reagent™ Solution (Invitrogen) according to the manufacturer's instructions. cDNA was generated from 2 μg of total RNA per sample using the High Capacity RNA to cDNA™ Kit (Applied Biosystems™). Quantitative real-time TaqMan PCR was performed using the following TaqMan primers (Applied Biosystems): Il-1b (Mm00434228_m1), Arg-1 (Mm00475988_m1), Ym-1 (Mm00657889_mH), Cc/5 (Mm01302427_m1), Tnf-α (Mm00443258_m1), Il-12 (Mm01288989_m1), IFN-γ (Mm01168134_m1), Il-10 (Mm00439614_m1), TGF-β (Mm01178820_m1), Il-4 (Mm00445259_m1) and housekeeping gene Hypoxantine-guanine phosphoribosyltransferase (HPRT) (Mm01324427_m1). Quantitative PCR was run on a ViiA7 Real-Time PCR System (Applied Biosystems) and data were quantified with the 2^−ΔCt method.
In order to assess the effects of the treatment on the post-MI cardiac environment, we performed qPCR analysis of mRNA encoding for proteins involved in myocardial inflammation and repair. The analysis was done in whole heart tissue collected at 3 days post-MI from mice receiving ABR-238901 or PBS (n=5 mice per group). […] The expression of IL-1β, TNFα, IL-10 and TGFβ was not affected at this stage (FIG. 3C, D, H). […] As neutrophils are the main producers of S100A8/A9, this effect is in line with the blunted local and systemic neutrophil response to MI observed in ABR-238901-treated mice (FIG. 2A, H).

[3] = tested on: C57BL/6 mice with MI induced by permanent coronary artery ligation; assay: S100A8/A9 in plasma (ELISA) and myocardium (immunohistochemistry) 3 days post-MI
Method: Subsequently the hearts were fixed in 4% (w/v) paraformaldehyde and embedded in paraffin. The hearts were sectioned transversely from the apex to the level of the suture, and 6 μm thick sections were collected at 390 μm intervals. The sections were mounted on glass slides and stained with Van Gieson or Masson trichrome stain for quantitative analysis of scar size. Alarmin S100A8/A9 was detected using mouse anti-S100A8/A9 IgG1 antibody (Abcam, ab 130234, 1:100 dilution, O/N 4° C.). Goat anti-mouse IgG1 HRP-conjugated secondary antibody (Abcam, ab 97240, 1 h RT) was used and the staining was developed with ImmPACT™ DAB (Vector, SK-4105) chromogen as substrate. The slides were subsequently scanned using an Aperio digital pathology slide scanner (Leica Biosystems), and images were captured with the ImageScope software (Leica Biosystems). Left ventricle area and the infarcted area were measured on each section by using the BioPix iQ 2.5.0 software (Biopix AB). The size of the post-MI myocardial scar was expressed as percentage of the left ventricle volume below the coronary ligature.
Plasma levels of S100A8/A9 heterodimer was measured by DuoSet®ELISA (R&D Systems, DY8596-05), according to manufacturer instructions. All the samples were diluted 1:100 prior to analysis. Biotinylated goat anti-mouse S100A8/A9 antibody was used as […] antibody and streptavidin-HRP was used for detection. […]

In the case of COc1ncc(S(=O)(=O)Nc2cncc(Cl)c2O)cc1Br [ABR-238901, 5-bromo-N-(5-chloro-4-hydroxypyridin-3-yl)-6-methoxypyridine-3-sulfonamide], the “Number of Ly6Chi monocytes in the bone marrow” value ([1]; 2 days treatment post-MI) is reported as “increased”, the “Numbers of proliferating BrdU+ Lin−Sca+Kit+CD150+CD48− hematopoietic stem cells” value ([1]; bone marrow, 24 h after BrdU) is reported as “reduced” and the “Numbers of macrophages in the heart” value ([1]; day 2 post-MI) is reported as “lower”. The “Numbers of monocytes in the bone marrow” value ([1]; day 2 post-MI) was “significantly higher”, the “Numbers of monocytes in the spleen” value ([1]; day 2 post-MI) was “did not have a significant effect” and the “Numbers of neutrophils in the spleen” value ([1]; day 2 post-MI) was “did not have a significant effect”. The “Neutrophil counts in the bone marrow” value ([1]; day 2 post-MI, vs MI control) was “highly increased”, the “Numbers of neutrophils in blood” value ([1]; day 2 post-MI, vs MI control) was “significantly lowered” and the “Numbers of neutrophils in myocardium” value ([1]; day 2 post-MI, vs MI control) was “significantly lowered”. For the same molecule, the “Gene expression of the chemokine CCL5/RANTES in heart” value [2] was “inhibited”, the “IL-1β expression in heart” value [2] was “not affected” and the “IL-10 expression in heart” value [2] was “not affected”. The “TGFβ expression in heart” value [2] was “not affected”, the “TNFα expression in heart” value [2] was “not affected” and the “Arg-1 mRNA expression in heart” value ([2]; vs MI controls) was “enhanced”. For the same molecule, the “IFN-γ mRNA expression in heart” value ([2]; vs MI controls) was “inhibited”, the “IL-4 mRNA expression in heart” value ([2]; vs MI controls) was “enhanced” and the “IL-12 mRNA expression in heart” value ([2]; vs MI controls) was “inhibited”. The “Ym-1 mRNA expression in heart” value ([2]; vs MI controls) was “enhanced”, the “Plasma levels of S100A8/A9” value ([3]; ELISA) was “reduced” and the “S100A8/A9 presence in the infarcted myocardium” value ([3]; immunohistochemical staining) was “reduced”.

Reference: patent US20220378763A1, “COMPOUND FOR TREATMENT OF ACUTE INFLAMMATION IN THE MYOCARDIUM” (CALPROTECT AB, priority 2019, published 2022)
